Laboratory results from patent US20180282279A1, “Pantothenamide Analogues” (Radboud Universitair Medisch Centrum, priority 2014, published 2018).
≈ marks a conversion by molar mass, not a printed value. Read-outs that look alike come from different tables or passages of the source.

Key:
[1] = system: Escherichia coli; assay: Bacterial growth assay and MIC determination, E. coli; type: cell-based; details: serum −
Protocol: (§1) Strains of Escherichia coli, Staphylococcus aureus and Staphylococcus epidermidis, were grown overnight in 1% Bacto tryptone medium (BD, Sparks, Md.). Streptococcus pyogenes was grown overnight in Bacto Todd Hewitt Broth medium (BD, Sparks, Md.). Cultures were then diluted 1:1,000 in fresh assay medium supplemented with or without 20% fetal bovine serum (FBS; HyClone, Celbio, Logan, Utah) and added to 96-well sterile enzyme-linked immunosorbent assay (ELISA) plates (100 μl per well). The compounds to be tested were diluted in the medium without serum and added to the bacteria (100 μl per well). Plates were incubated at 37° C., and bacterial growth was monitored over time by reading the optical density at 490 nm using a microplate reader (model 450; Bio-Rad Laboratories Inc., Hercules, Calif.). Streptococcus pneumoniae strains were grown to mid-log phase (OD620 of 0.3) and stored in 15% glycerol at […] till further use. Minimal inhibitory concentration (MIC) of antibiotics was determined according to standard procedures. Bacteria were diluted 10-fold in Mueller-Hinton medium (BD, Sparks, Md.) and added to 96-well sterile ELISA plates (150 μl per well). The compounds to be tested were diluted in the medium without serum and added to the bacteria (150 μl per well). Plates were incubated overnight at 37° C. in 5% CO2. The MIC was defined as the lowest concentration of compound at which no growth was visible with the naked eye.

[2] = Pharmacokinetic study in rats; type: in vivo; details: 50 mg/kg
Protocol: To address the question if increased stability would also lead to improved bioavailability in vivo, a pharmacokinetic study was performed. Briefly, the pantothenamides N5-Pan (an antibacterial compound) and CXP18.3-002 (an antimalarial compound), and their corresponding inverted amides CXP18.6-013 and CXP18.6-006 were administered to rats at 50 mg/kg dissolved in saline. Blood samples were collected from 3 rats before the experiment and at 0.25, 0.5, 1, 2, 4, 6, 8, 12 and 24 h. The concentrations of the compounds were analyzed by LC-MS/MS (AB Sciex API-4000 system). Data were analyzed by the Non-compartmental analysis tool of Phoenix WinNonlin (Version 6.3).

[3] = system: Streptococcus pneumoniae; assay: MIC determination, S. pneumoniae; type: cell-based; details: Streptococcus pneumoniae; S. pneumoniae, serum −; read-out: MIC
Protocol: Streptococcus pneumoniae strains were grown to mid-log phase (OD620 of 0.3) and stored in 15% glycerol at […] till further use. Minimal inhibitory concentration (MIC) of antibiotics was determined according to standard procedures. Bacteria were diluted 10-fold in Mueller-Hinton medium (BD, Sparks, Md.) and added to 96-well sterile ELISA plates (150 μl per well). The compounds to be tested were diluted in the medium without serum and added to the bacteria (150 μl per well). Plates were incubated overnight at 37° C. in 5% CO2. The MIC was defined as the lowest concentration of compound at which no growth was visible with the naked eye.

[4] = system: Staphylococcus aureus; assay: Bacterial growth assay and MIC determination, S. aureus; type: cell-based; details: S. aureus
Protocol: as §1

[5] = system: Staphylococcus epidermidis; assay: Bacterial growth assay and MIC determination, S. epidermidis; type: cell-based; details: S. epidermidis, serum −
Protocol: as §1

[6] = system: Streptococcus pyogenes; assay: Bacterial growth assay and MIC determination, S. pyogenes; type: cell-based; details: S. pyogenes, serum −
Protocol: as §1

[7] = system: Plasmodium berghei strain 676c11 (PbGFP-Luc); assay: In vivo rodent malaria model; details: female Wistar rats, 6 mg/kg orally three times a day, day 5-8
Excerpt: Female mice (C57 Black 6, 9-10 weeks of age at the start of the experiment) and female rats (Wistar, 150-200 grams at the beginning of the experiment) were housed under standard conditions and experiments were approved by the institutional ethical committee on animal care and experimentation of Radboud University Medical Centre (Nijmegen).
To test our compounds in an in vivo malaria model we used a well described rodent malaria model (Zuckerman and Yoeli, J Infect Dis. 94, 225-36). First, donor mice were infected by 0.2 ml cryopreserved infected blood stocks containing the transgenic Plasmodium berghei strain 676c11 (PbGFP-Luc). After four days the mice were sacrificed and their blood was collected. The parasitemia in the blood from the mice was calculated as percentage of infected red blood cells (RBC) by Giemsa-stained blood smears. Infected blood was diluted to 5×10^7 parasites per ml and 0.2 ml was i.p. injected in rats (inoculation of 10′ parasites per rat). Treatment with chloroquine (6 mg/kg), CXP18.6-017 (100 mg/kg) and CXP18.6-052 (100 mg/kg) started 5 days post inoculation and where given orally three times a day until day eight. From day 5 blood samples were collected and parasitemia was determined by analysis of Giemsa-stained blood smears. The infection and treatment regimes were well tolerated by the animals.

[8] = Escherichia coli, read-out: MIC
[9] = Staphylococcus aureus, serum −, read-out: MIC
[10] = Staphylococcus epidermidis, read-out: MIC

MIC [1, 8] | MIC [3] | MIC [4, 9] | MIC [5, 10] | MIC ([4]; serum + (10% serum)) | Compound | also measured
64 µg/mL (≈ 222 µM) | 0.25 µg/mL (≈ 0.867 µM) | 8 µg/mL (≈ 27.7 µM) | 32 µg/mL (≈ 111 µM) |  | CCCCCNC(=O)CCNC(=O)[C@H](O)C(C)(C)CO [Compound N5-Pan, N-pentylpantothenamide, reference compound] | detection in blood following oral administration [2]: could not or hardly be detected
128 µg/mL (≈ 404 µM) | 2 µg/mL (≈ 6.32 µM) | 0.5 µg/mL (≈ 1.58 µM) | 0.5 µg/mL (≈ 1.58 µM) | >256 µg/mL | CCCCCCCNC(=O)CCNC(=O)[C@H](O)C(C)(C)CO [Compound N7-Pan, N-heptylpantothenamide, reference compound] | MIC ([4]; Staphylococcus aureus, serum + (10% serum), read-out: MIC): > 256 µg/mL; MIC ([6]; Streptococcus pyogenes, read-out: MIC): 2 µg/mL (≈ 6.32 µM)
 |  |  |  | >256 µg/mL | CCCCCCCCCNC(=O)CCNC(=O)[C@H](O)C(C)(C)CO [Compound N9-Pan, reference compound] | MIC [1]: >256 µg/mL; MIC ([4]; serum −): 0.5 µg/mL (≈ 1.45 µM); MIC [6]: 16 µg/mL (≈ 46.4 µM); MIC [5]: 0.25 µg/mL (≈ 0.726 µM)
 |  |  |  |  | CCN(CC)CCCC(C)Nc1ccnc2cc(Cl)ccc12 (stereo not drawn) [chloroquine, reference compound] | parasitemia [7]: reduced parasitemia to nearly undetectable levels within 3 days
